Measurements taken from patent publication US20030143634A1, “Method to detect interactions between cellular components in intact living cells, and to extract quantitative information relating to those interactions by fluorescence redistribution” (Biolmage A/S, priority 2001, published 2003).

Tests used:
[1] = target: T1, CAD:CAD link between mediator and detectable conjugates (Homo sapiens, UniProt P62942, F37M); test: 3-part Histone H2B iGRIP system, interaction inhibitor dose-response (extraction procedure, plate reader); assay type: cell-based; conditions: CHO cells
T1 construct: expressed in transfected cells; host or cells: CHO
Source text: (§1) In this specific example, the 3 components of this second system were as follows:
(§2) 1) The anchor conjugate was made by fusing histone H2B to FRB(T2098L) [ps1569] (also referred to as FRB*). The cellular localization of the anchor could be detected with an antibody directed against the HA-tag included in the anchor fusion protein
(§3) 2) The mediator conjugate [ps1556] comprised wild-type FKBP protein fused to tandem repeats of FKBP(F36M), a mutant form of the protein that is known as FM and also CAD, and the coding plasmid for which was obtained from ARIAD Pharmaceuticals
(§4) 3) The detectable conjugate was made by fusing tandem repeats of CAD to EGFP [ps1547].
(§5) The three conjugates are depicted in diagrammatic form in FIG. 5a. CAD proteins spontaneously homodimerize, so mediator and detectable conjugates are normally linked together in the 3-part system (FIG. 5b). Therefore in this example, the protein interaction to be tested was the CAD:CAD link between mediator and detectable conjugates. […] The link between CAD proteins can be broken by ARIAD compound AP21998 (FIG. 5d). AP21998 was therefore used as the reference compound to validate the system.
(§6) For compatibility with high throughput screening the cells were grown in microtitre plates for 16 hours from a seeding density of 1.0×10E5 cells per 400 μL, and an extraction procedure (described in Example 3) was used to remove mobile fluorescent components from cells, so that signal from immobile components locked in the nucleus could be measured. Plates were routinely stained with the nuclear dye Hoechst 22538 to enable correction of the immobile EGFP fluorescence signal from each well for cell density.
Dose-response of this CAD-interaction inhibitor in the 3-part Histone H2B system could be compared with the compound's efficacy and potency in other systems, to determine if similar sensitivity to the inhibitor (and other inhibitors) could be expected from the Histone H2B system. […] Plates were processed for extraction and nuclear staining then read in an Ascent plate reader. […]

[2] = tested on: transcription factor-based detection system; conditions: data supplied by ARIAD Pharmaceuticals (RPD kit fact sheet); cited from earlier work
[3] = target: T1, CAD:CAD link between mediator and detectable conjugates; test: 3-part ActinPaint iGRIP system, interaction inhibitor dose-response (extraction procedure, plate reader); assay type: cell-based; conditions: CHO cells
Source text: as §1
as §2, with “the F-actin binding domain of α-actinin (amino acids 1-133 of full protein sequence)” for “histone H2B”, “[ps1570]” for “[ps1569]”
as §3, §4
as §5, with “system. CHO cells were transfected and cultured essentially as described in Example 2, except the complement of plasmids required for the 2 and 3-part systems were transfected simultaneously rather than sequentially (as described in Example 2).” for “system.”
as §6, with “components” for “components locked in the nucleus”, “density. […]” for “density.”
ActinPaint system. […] Plates were processed for extraction and nuclear staining then read in an Ascent plate reader. […]

FRB(T2098L) and FKBP [4] = target: T2, FRB(T2098L) and FKBP (Homo sapiens, UniProt P42345+P62942, T2098L); test: 2-part ActinPaint system, response to dimerizer; assay type: cell-based; conditions: CHO cells
T2 construct: expressed in transfected cells; host or cells: CHO
Description: (§7) The first system consists of 2 parts, an anchor conjugated to FRB(T2098L) [plasmid construct ps1570] and a detectable conjugate comprising FKBP fused to EGFP [ps1208]—these conjugates are depicted in FIG. 4a. […] The 2-part assay also acts as counter screen for any compounds that may directly or indirectly affect the location of the anchor protein itself within the cell.
as §6, with “components” for “components locked in the nucleus”
Signals from immobile EGFP-labelled components and from the nuclear stain were read on an fluorescence plate reader (Fluoroskan Ascent CF, Labsystems, Finland) equipped with appropriate filter sets (EGFP: excitation 485 nm, emission 527 nm; Hoechst 22538: excitation 355 nm, emission 460 nm). […] For further experiments a dimerizer concentration of 800 nM for 2 hours was selected as giving adequate signal to background for extracted cells to be read on the Ascent plate reader.

FRB(T2098L) and FKBP [5] = target: T2, FRB(T2098L) and FKBP; test: 2-part Histone H2B system, response to dimerizer and competition by FK506; assay type: cell-based; conditions: CHO cells
Description: The 2-part assay also acts as counter screen for any compounds that may directly or indirectly affect the location of the anchor protein itself within the cell.
as §6
Signals from immobile EGFP-labelled components and from the nuclear stain were read on an fluorescence plate reader (Fluoroskan Ascent CF, Labsystems, Finland) equipped with appropriate filter sets (EGFP: excitation 485 nm, emission 527 nm; Hoechst 22538: excitation 355 nm, emission 460 nm).

FRB(T2098L) and FKBP [6] = target: T2, FRB(T2098L) and FKBP; test: 3-part Src(1-14) system, response to dimerizer; assay type: cell-based; conditions: CHO cells, 500 nM AP21967 for 120 minutes
Source text: as §1
1) The anchor conjugate was made by fusing c-Src(1-14) to FRB(T2098L) [ps1549]. The cellular localization of the anchor could be detected with an antibody directed against the HA-tag included in the anchor fusion protein
as §3, §4
as §5, with “system. […]” for “system.”
(§8) Without dimerizer present in the medium, cells from both 2- and 3-part Src(1-14) systems display a more or less uniform distribution of GFP fluorescence, throughout cytoplasmic and nuclear compartments (FIGS. 23a and 24a). […]

FRB(T2098L) and FKBP [7] = target: T2, FRB(T2098L) and FKBP; test: 3-part ActinPaint iGRIP system, response to dimerizer; assay type: cell-based; conditions: CHO cells, 800 nM AP21967, 37° C.
Source text: as §1
as §2, with “the F-actin binding domain of α-actinin (amino acids 1-133 of full protein sequence)” for “histone H2B”, “[ps1570]” for “[ps1569]”
as §3, §4
The three conjugates are depicted in diagrammatic form in FIG. 5a. […]
as §6, with “components” for “components locked in the nucleus”, “density. […]” for “density.”

FRB(T2098L) and FKBP [8] = target: T2, FRB(T2098L) and FKBP; test: 2-part Src(1-14) system, response to dimerizer; assay type: cell-based; conditions: CHO cells, 500 nM AP21967 for 60 minutes
Source text: as §7, with “ps1549]” for “ps1570]”, “[ps1208].” for “[ps1208]—these conjugates are depicted in FIG. 4a.”
CHO cells were transfected and cultured essentially as described in Example 2, except the complement of plasmids required for the 2 and 3-part systems were transfected simultaneously rather than sequentially (as described in Example 2).
For selection of co-expressing cells, 2-part system cells transfected with ps1549+ps1208 were cultured with 1 mg/ml zeocin+5 μg/ml blasticidin HCl. Cells of the 3-part system were cultured with 1 mg/ml zeocin+5 μg/ml blasticidin HCl+0.5 mg/ml G418 sulphate.
This redistribution response to dimerizer is robust and can be competed by FK506. In the 3-part system, the response can also be competed by compound AP21998.
as §8, with “24a). Dimerizer addition results in recruitment of the CAD-linked mediator+detectable complexes to the plasma membrane (FIGS. 23b and 24b).” for “24a).”

[9] = AP21998 greater than 5 μM plus 800 nM AP21967, 2 hours
[10] = 1000 nM AP21967, 2 hours, extraction procedure

EGFP distribution in micrograph (FIG. 15c) ([1]; 800 nM AP21967 + 5 μM AP21998 for 2 hours)	EGFP-label remaining in the nuclei [1, 9]	EC50 ([1]; co-treated with 800 nM AP21967, 2 hours, 37° C., read-out: EC50 for the prevention of recruitment / removal of EGFP-labelled components from the nuclear compartment)	EGFP-label remaining on the F-actin aggregates [3, 9]	EC50 ([3]; co-treated with 800 nM AP21967, 2 hours, 37° C., read-out: EC50 for the prevention of recruitment / removal of EGFP-labelled components from the F-actin aggregates)	time after which recruitment of fluorescence to F-actin aggregates is visible (FRB(T2098L) and FKBP [4]; 800 nM AP21967, 37° C.)	increase of signal from immobile EGFP-labelled components relative to untreated cells (FRB(T2098L) and FKBP [4]; [10])	time after which recruitment of fluorescence to the nuclei is visible (FRB(T2098L) and FKBP [5]; 800 nM AP21967, 37° C.)	time to maximum response (recruitment to nuclei) (FRB(T2098L) and FKBP [5]; 800 nM AP21967, 37° C.)	increase of signal from immobile EGFP-labelled components relative to untreated cells (FRB(T2098L) and FKBP [5]; [10])	EGFP distribution in micrograph (FIG. 24b) (FRB(T2098L) and FKBP [6])	time after which EGFP labelling of aggregates is clearly visible (FRB(T2098L) and FKBP [7])	EGFP distribution in micrograph (FIG. 23b) (FRB(T2098L) and FKBP [8])	SMILES	EC50 [2]	EGFP distribution in micrograph (FIG. 7c) ([3]; 5 μM AP21998 for 2 hours after 800 nM AP21967 for 60 minutes, continued presence of AP21967)
no nuclear accumulation	no EGFP-label remained in the nuclei	~1800 nM	no EGFP-label remained on the aggregates	~1100 nM	–	–	–	–	–	–	–	–	CC[C@H](C(=O)N1CCCCC1C(=O)O[C@H](CCc1ccc(OC)c(OC)c1)c1cccc(OCC(=O)NCCCN(C)C)c1)c1cc(OC)c(OC)c(OC)c1 (stereo partly drawn) [AP21998]	~200 nM	The bright aggregates have dispersed into the cytoplasm
–	–	–	–	–	2 min	approximately 3 fold	2 min	approximately 10 minutes	approximately 2 fold	recruited to the plasma membrane	15 min	recruited to the plasma membrane	CO[C@H]1[C@@H](O)[C@H](C)C[C@H](C)/C=C/C=C/C=C(\C)[C@@H](c2c[nH]c3c(C)cccc23)C[C@@H]2CC[C@@H](C)[C@@](O)(O2)C(=O)C(=O)N2CCCC[C@H]2C(=O)O[C@H]([C@H](C)C[C@@H]2CC[C@@H](O)[C@H](OC)C2)C[C@H](O)[C@H](C)/C=C(\C)[C@H]1O [AP21967]	–	–
